Assay [1] deals with T1, Sigma intracellular receptor 2 (Rattus norvegicus, UniProt Q5U3Y7).
T1 sequence (Q5U3Y7 whole entry): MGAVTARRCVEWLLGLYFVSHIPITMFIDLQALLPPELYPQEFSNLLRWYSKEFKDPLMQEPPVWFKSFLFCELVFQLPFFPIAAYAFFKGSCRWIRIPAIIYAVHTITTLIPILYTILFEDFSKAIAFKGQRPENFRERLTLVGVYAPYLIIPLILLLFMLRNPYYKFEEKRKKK
Nature of the assay: biochemical.
Description: Binding affinity to sigma 2 receptor in rat PC12 cells assessed as inhibition constant

The target in assay [2] is T2, Sigma non-opioid intracellular receptor 1 (Homo sapiens, UniProt Q99720). Kind of assay: Displacement of [3H](+)-pentazocine from sigma 1 receptor in HEK293 cells assessed as inhibition constant by radioligand competition binding assay. It counts as cell-based.
For assay [3], the target named is T3, Sigma intracellular receptor 2 (Homo sapiens, UniProt Q5BJF2). Kind of assay: Displacement of [3H](+)-ditolylguanidine from human sigma 2 receptor transfected in human HEK293T cells assessed as inhibition constant in presence of (+)-pentazocine by radioligand competition binding assay. It counts as cell-based, HEK293.
For assay [4], the target named is T3, Sigma intracellular receptor 2. Nature of the assay: Binding affinity to sigma 2 receptor (unknown origin) assessed as inhibition constant.
Assay [5] concerns the target T2, Sigma non-opioid intracellular receptor 1. Kind of assay: Binding affinity to sigma 1 receptor (unknown origin) assessed as inhibition constant.

Data on 26 compounds can be found in ChEMBL document CHEMBL5620364, “Structure-affinity relationships of stereoisomers of norbenzomorphan-derived σ2R/TMEM97 modulators” (Eur J Med Chem, 2023).

T2 sequence (Q99720 whole entry): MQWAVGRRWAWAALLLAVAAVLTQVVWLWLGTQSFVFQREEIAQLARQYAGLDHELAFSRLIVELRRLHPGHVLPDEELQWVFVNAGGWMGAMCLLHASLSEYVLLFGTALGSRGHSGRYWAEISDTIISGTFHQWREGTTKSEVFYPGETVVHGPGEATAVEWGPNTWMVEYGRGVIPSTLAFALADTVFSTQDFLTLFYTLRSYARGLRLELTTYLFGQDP
T3 sequence (Q5BJF2 whole entry): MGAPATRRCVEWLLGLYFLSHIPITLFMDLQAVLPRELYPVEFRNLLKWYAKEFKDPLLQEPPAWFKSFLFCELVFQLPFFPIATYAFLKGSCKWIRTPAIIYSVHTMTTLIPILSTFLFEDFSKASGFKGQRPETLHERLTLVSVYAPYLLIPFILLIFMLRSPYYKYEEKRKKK

In the case of `Clc1ccc2c(c1)C1CC2CCCN1CCc1ccccc1` (configuration not stated), the Ki (usually a measure of affinity in units of concentration, obtained from inhibition or displacement) in assay [1] was 248 nM.

With `O=C(OCc1ccccc1)N1CC[C@H]2C[C@@H]1c1cc(N3CCN(C4CCC4)CC3)ccc12`, the values for the Ki in assay [2] and in assay [3] were 50.7 nM and 34.3 nM, respectively.

Turning to `O=C(OCc1ccccc1)N1CC[C@@H]2C[C@H]1c1cc(N3CCCN(CCCF)CC3)ccc12`, the Ki was found to be 11.7 nM in assay [2] and 22.2 nM in assay [3].

Consider `CN1CC(CN2CCN(c3ccc4c(c3)[C@@H]3C[C@H]4CCN3C(=O)OCc3ccccc3)CC2)C1`, for which the figures for the Ki in assay [2] and in assay [4] were 94.1 nM and 24.4 nM, respectively.

Take `O=C(OCc1ccccc1)N1CC[C@H]2C[C@@H]1c1cc(N3CCN(CCCF)CC3)ccc12`: the Ki in assay [2] worked out at 81.7 nM; in assay [3] it was 24.3 nM.

On to `COCCCN1CCN(c2ccc3c(c2)[C@@H]2C[C@H]3CCN2C(=O)OCc2ccccc2)CC1`, for which the Ki is 59.2 nM in assay [5] and 8 nM in assay [4].

As to `O=C(OCc1ccc(C(F)(F)F)cc1)N1CC[C@@H]2C[C@H]1c1cc(N3CCN(CCCF)CC3)ccc12`, the Ki in assay [2] amounted to 67.9 nM; in assay [3], 20.9 nM.

Turning to `CCN(CC)C(=O)CCN1CCN(c2ccc3c(c2)[C@@H]2C[C@H]3CCN2C(=O)OCc2ccccc2)CC1`, the Ki in assay [5] amounted to 197 nM; in assay [4], 12.4 nM.

In the case of `O=C(OCc1ccccc1)N1CC[C@@H]2C[C@H]1c1cc(N3CCN(C4CCC4)CC3)ccc12`, the Ki stood at 32.9 nM in assay [2] and 12.4 nM in assay [3].

With `COCCN1CCN(c2ccc3c(c2)[C@H]2C[C@@H]3CCN2C(=O)OCc2ccccc2)CC1`, the Ki was found to be 312 nM in assay [2] and 129 nM in assay [3].

For `O=C(/C=C/c1ccccc1)N1CC[C@@H]2C[C@H]1c1cc(N3CCN(CCCF)CC3)ccc12`, the Ki amounted to 185 nM in assay [2] and 53.3 nM in assay [4].

For the compound `CN1CC(C(=O)N2CCN(c3ccc4c(c3)[C@@H]3C[C@H]4CCN3C(=O)OCc3ccccc3)CC2)C1`, the Ki in assay [5] was determined as 53.1 nM; in assay [4], 35.2 nM.

For the compound `O=C(OCc1ccccc1)N1CC[C@@H]2C[C@H]1c1cc(N3CCN(CCO)CC3)ccc12`, the Ki in assay [2] turned out to be 510 nM; in assay [3], 75.3 nM.

With `CNCCC(=O)N1CCN(c2ccc3c(c2)[C@@H]2C[C@H]3CCN2C(=O)OCc2ccccc2)CC1`, the Ki in assay [5] came out at 189 nM; in assay [4], 110 nM.

As to `COCCN1CCN(c2ccc3c(c2)[C@@H]2C[C@H]3CCN2C(=O)OCc2ccccc2)CC1`, the Ki was 193 nM in assay [2] and 47 nM in assay [3].

In the case of `O=C(OCc1cccc(F)c1)N1CC[C@@H]2C[C@H]1c1cc(N3CCN(CCCF)CC3)ccc12`, the values for the Ki in assay [2] and in assay [3] were 17.2 nM and 21.2 nM, respectively.

As to `CN(C)CCN1CCN(c2ccc3c(c2)[C@@H]2C[C@H]3CCN2C(=O)OCc2ccccc2)CC1`, the Ki in assay [5] turned out to be 83.4 nM; in assay [4] it was 52 nM.

As for `CN(C)C1CCN(c2ccc3c(c2)[C@@H]2C[C@H]3CCN2C(=O)OCc2ccccc2)CC1`, the results for the Ki in assay [2] and in assay [4] were 140 nM and 31.5 nM, respectively.

Take `O=C(OCc1ccccc1)N1CC[C@H]2C[C@@H]1c1cc(N3CCN(CCO)CC3)ccc12`: the Ki in assay [2] came to 1740 nM; in assay [3], 201 nM.

As to `CNCCN1CCN(c2ccc3c(c2)[C@@H]2C[C@H]3CCN2C(=O)OCc2ccccc2)CC1`, the Ki in assay [5] was determined as 173 nM; in assay [4], 60.9 nM.

With `O=C(OCc1ccc(Cl)cc1)N1CC[C@@H]2C[C@H]1c1cc(N3CCN(CCCF)CC3)ccc12`, the results for the Ki in assay [2] and in assay [3] were 94.9 nM and 27.1 nM, respectively.

For the compound `CCCCN1C[C@@H]2CN(c3ccc4c(c3)[C@@H]3C[C@H]4CCN3C(=O)OCc3ccccc3)C[C@@H]2C1`, the results for the Ki in assay [2] and in assay [3] were 50.2 nM and 28.4 nM, respectively.

For `O=C(CCc1ccccc1)N1CC[C@@H]2C[C@H]1c1cc(N3CCN(CCCF)CC3)ccc12`, the Ki in assay [2] turned out to be 57.6 nM; in assay [4], 397 nM.

On to `O=C(OCc1ccccc1)N1CC[C@@H]2C[C@H]1c1cc(N3CC4CCC(C3)N4CCCF)ccc12`, for which the inhibition constant (Ki) came to 70.4 nM in assay [2] and 17.7 nM in assay [3].

Turning to `CN(C)CCCOC1CN(c2ccc3c(c2)[C@@H]2C[C@H]3CCN2C(=O)OCc2ccccc2)C1`, the Ki stood at 118 nM in assay [2] and 57.8 nM in assay [3].

Regarding `O=C(OCc1ccccc1)N1CC[C@@H]2C[C@H]1c1cc(N3CCN(CCCF)CC3)ccc12`, the Ki was 37.7 nM in assay [2], 9.2 nM in assay [3] and 9.2 nM in assay [4].
